TGI data for ten molecules are collected here from PubChem BioAssay (NCI).

SMILES strings stand for the structures.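 Grown in 96-well plates, cells were treated for 48 hours with each compound at five concentrations. Insufficient inhibition: endpoint recorded as highest concentration tested. At the TGI there is no net growth.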 Where only a bound is given, the exact number is not on record here.

The first assay relates to IGROV1 ovarian. The assay can be described thus: growth of human tumour cells (NCI), 48 h.
Turning to `O=C1NC(=O)C2C(=O)NC(=O)C1C2Cc1ccco1` (stereo unspecified), the TGI is > 100 µM.
Same read-out and setting: the figure for `CCOC(=O)/C(=C/c1ccccn1)C(=O)c1ccccc1` is 32.8 µM; for `O=NN(CCCl)C(=O)NC1CCC(CC(=O)O)CC1` (stereo unspecified) it is > 100 µM.
Same read-out and setting: the same measure for `COc1ccc(/C=C2\C(=O)N(NC(C)=O)c3ccccc32)cc1`: > 100 µM; for `O=C(CCCC(=O)Nc1ccc(Cl)cc1Cl)CC(=O)c1ccc2ccccc2c1`: > 100 µM.
As to `CCc1cccc(CC)c1NC(=O)/C(Cl)=C(/Cl)C(=O)O`, the TGI was found to be 50.4 µM.
With `Nc1nc(=S)c2c(ncn2CCO)[nH]1`, the TGI is > 100 µM.
Same read-out and setting: the same measure for `CC(C)Cc1ccc(C(C)/C=C2\CCC(CN(C)C)C2=O)cc1` (stereo unspecified): 18 µM.
Same read-out and setting: the same measure for `Cn1c(=O)c2nc3sc4c(n3c2n(C)c1=O)C(=O)c1ccccc1C4=O`: > 69 µM; for `N#CC1CC(c2ccccc2)Nc2cc(Cl)ccc2N1` (stereo unspecified): > 100 µM.

For a further assay, the system named is PC-3 prostate. The assay can be described thus: growth of human tumour cells (NCI), 48 h.
In turn, `CC(C)Cc1ccc(C(C)/C=C2\CCC(CN(C)C)C2=O)cc1` (stereo unspecified) showed a TGI of 22.4 µM.
Same read-out and setting: the same measure for `Cn1c(=O)c2nc3sc4c(n3c2n(C)c1=O)C(=O)c1ccccc1C4=O`: > 76.1 µM.

Another assay concerns SN12C renal. The assay can be described thus: growth of human tumour cells (NCI), 48 h.
With `O=C1NC(=O)C2C(=O)NC(=O)C1C2Cc1ccco1` (stereo unspecified), the TGI was > 100 µM.
The same measure, in the same setting: the same measure for `CCOC(=O)/C(=C/c1ccccn1)C(=O)c1ccccc1`: 27.2 µM; for `O=NN(CCCl)C(=O)NC1CCC(CC(=O)O)CC1` (stereo unspecified): > 100 µM.
Turning to `COc1ccc(/C=C2\C(=O)N(NC(C)=O)c3ccccc32)cc1`, the TGI was > 100 µM.
As to `O=C(CCCC(=O)Nc1ccc(Cl)cc1Cl)CC(=O)c1ccc2ccccc2c1`, the TGI was > 100 µM.
`CCc1cccc(CC)c1NC(=O)/C(Cl)=C(/Cl)C(=O)O` yielded a TGI of 45.9 µM.
The same measure, in the same setting: the same measure for `Nc1nc(=S)c2c(ncn2CCO)[nH]1`: > 100 µM; for `CC(C)Cc1ccc(C(C)/C=C2\CCC(CN(C)C)C2=O)cc1` (stereo unspecified): 20.5 µM.
On to `Cn1c(=O)c2nc3sc4c(n3c2n(C)c1=O)C(=O)c1ccccc1C4=O`, for which the TGI is > 87.5 µM.
Still for that read-out and setting: the same measure for `N#CC1CC(c2ccccc2)Nc2cc(Cl)ccc2N1` (stereo unspecified): > 100 µM.

A further assay concerns DLD-1 colon. Briefly: growth of human tumour cells (NCI), 48 h.
With `O=C1NC(=O)C2C(=O)NC(=O)C1C2Cc1ccco1` (stereo unspecified), the TGI is > 100 µM.
Regarding `CCOC(=O)/C(=C/c1ccccn1)C(=O)c1ccccc1`, the TGI came to 29.5 µM.
Still for that read-out and setting: the same measure for `O=NN(CCCl)C(=O)NC1CCC(CC(=O)O)CC1` (stereo unspecified): > 100 µM.
Same read-out and setting: the figure for `COc1ccc(/C=C2\C(=O)N(NC(C)=O)c3ccccc32)cc1` is > 100 µM; for `O=C(CCCC(=O)Nc1ccc(Cl)cc1Cl)CC(=O)c1ccc2ccccc2c1` it is > 100 µM.
Still for that read-out and setting: the same measure for `CCc1cccc(CC)c1NC(=O)/C(Cl)=C(/Cl)C(=O)O`: 49.1 µM; for `Nc1nc(=S)c2c(ncn2CCO)[nH]1`: > 100 µM; for `CC(C)Cc1ccc(C(C)/C=C2\CCC(CN(C)C)C2=O)cc1` (stereo unspecified): 40 µM.
Turning to `Cn1c(=O)c2nc3sc4c(n3c2n(C)c1=O)C(=O)c1ccccc1C4=O`, the TGI is > 100 µM.
The same measure, in the same setting: the figure for `N#CC1CC(c2ccccc2)Nc2cc(Cl)ccc2N1` (stereo unspecified) is > 100 µM.

Another assay deals with SK-MEL-5 melanoma. The assay can be described thus: growth of human tumour cells (NCI), 48 h.
Regarding `O=C1NC(=O)C2C(=O)NC(=O)C1C2Cc1ccco1` (stereo unspecified), the TGI is > 100 µM.
Still for that read-out and setting: the same measure for `CCOC(=O)/C(=C/c1ccccn1)C(=O)c1ccccc1`: 28.6 µM.
Turning to `O=NN(CCCl)C(=O)NC1CCC(CC(=O)O)CC1` (stereo unspecified), the TGI was > 100 µM.
Same read-out and setting: the same measure for `COc1ccc(/C=C2\C(=O)N(NC(C)=O)c3ccccc32)cc1`: > 100 µM; for `O=C(CCCC(=O)Nc1ccc(Cl)cc1Cl)CC(=O)c1ccc2ccccc2c1`: > 100 µM; for `CCc1cccc(CC)c1NC(=O)/C(Cl)=C(/Cl)C(=O)O`: > 100 µM.
Same read-out and setting: the figure for `Nc1nc(=S)c2c(ncn2CCO)[nH]1` is > 100 µM.
Same read-out and setting: the same measure for `CC(C)Cc1ccc(C(C)/C=C2\CCC(CN(C)C)C2=O)cc1` (stereo unspecified): 19.4 µM.
`Cn1c(=O)c2nc3sc4c(n3c2n(C)c1=O)C(=O)c1ccccc1C4=O`: the TGI was > 100 µM.
As to `N#CC1CC(c2ccccc2)Nc2cc(Cl)ccc2N1` (stereo unspecified), the TGI was > 100 µM.

A further assay relates to DMS 114 small cell lung. The assay can be described thus: growth of human tumour cells (NCI), 48 h.
`O=C1NC(=O)C2C(=O)NC(=O)C1C2Cc1ccco1` (stereo unspecified): the TGI was > 100 µM.
Consider `CCOC(=O)/C(=C/c1ccccn1)C(=O)c1ccccc1`, for which the TGI worked out at 28.5 µM.
On the same count and under the same terms, the figure for `O=NN(CCCl)C(=O)NC1CCC(CC(=O)O)CC1` (stereo unspecified) is > 100 µM; for `COc1ccc(/C=C2\C(=O)N(NC(C)=O)c3ccccc32)cc1` it is > 100 µM; for `O=C(CCCC(=O)Nc1ccc(Cl)cc1Cl)CC(=O)c1ccc2ccccc2c1` it is > 100 µM.
On the same count and under the same terms, the same measure for `CCc1cccc(CC)c1NC(=O)/C(Cl)=C(/Cl)C(=O)O`: 40.9 µM; for `Nc1nc(=S)c2c(ncn2CCO)[nH]1`: > 100 µM.
Still for that read-out and setting: the figure for `CC(C)Cc1ccc(C(C)/C=C2\CCC(CN(C)C)C2=O)cc1` (stereo unspecified) is 46.1 µM.
For `Cn1c(=O)c2nc3sc4c(n3c2n(C)c1=O)C(=O)c1ccccc1C4=O`, the TGI was > 100 µM.
The same measure, in the same setting: the same measure for `N#CC1CC(c2ccccc2)Nc2cc(Cl)ccc2N1` (stereo unspecified): 97.3 µM.

For a further assay, the system named is LOX IMVI melanoma. Briefly: growth of human tumour cells (NCI), 48 h.
Take `O=C1NC(=O)C2C(=O)NC(=O)C1C2Cc1ccco1` (stereo unspecified): the TGI is > 100 µM.
Molecule `CCOC(=O)/C(=C/c1ccccn1)C(=O)c1ccccc1` had a TGI of 6.94 µM.
Regarding `O=NN(CCCl)C(=O)NC1CCC(CC(=O)O)CC1` (stereo unspecified), the TGI is > 100 µM.
Same read-out and setting: the same measure for `COc1ccc(/C=C2\C(=O)N(NC(C)=O)c3ccccc32)cc1`: > 100 µM; for `O=C(CCCC(=O)Nc1ccc(Cl)cc1Cl)CC(=O)c1ccc2ccccc2c1`: > 100 µM.
Regarding `CCc1cccc(CC)c1NC(=O)/C(Cl)=C(/Cl)C(=O)O`, the TGI was > 100 µM.
On the same count and under the same terms, the same measure for `Nc1nc(=S)c2c(ncn2CCO)[nH]1`: > 100 µM; for `CC(C)Cc1ccc(C(C)/C=C2\CCC(CN(C)C)C2=O)cc1` (stereo unspecified): 15.6 µM; for `Cn1c(=O)c2nc3sc4c(n3c2n(C)c1=O)C(=O)c1ccccc1C4=O`: > 54.7 µM.
As for `N#CC1CC(c2ccccc2)Nc2cc(Cl)ccc2N1` (stereo unspecified), the TGI was > 100 µM.

The subject of the next assay is SNB-78 CNS. The assay can be described thus: growth of human tumour cells (NCI), 48 h.
`O=C1NC(=O)C2C(=O)NC(=O)C1C2Cc1ccco1` (stereo unspecified): the TGI was > 100 µM.
`CCOC(=O)/C(=C/c1ccccn1)C(=O)c1ccccc1` had a TGI of 38.9 µM.
The same measure, in the same setting: the same measure for `O=NN(CCCl)C(=O)NC1CCC(CC(=O)O)CC1` (stereo unspecified): > 100 µM.
The same measure, in the same setting: the same measure for `COc1ccc(/C=C2\C(=O)N(NC(C)=O)c3ccccc32)cc1`: > 100 µM.
Still for that read-out and setting: the figure for `O=C(CCCC(=O)Nc1ccc(Cl)cc1Cl)CC(=O)c1ccc2ccccc2c1` is > 100 µM.
Regarding `CCc1cccc(CC)c1NC(=O)/C(Cl)=C(/Cl)C(=O)O`, the TGI is 65.8 µM.
The same measure, in the same setting: the figure for `Nc1nc(=S)c2c(ncn2CCO)[nH]1` is > 100 µM; for `CC(C)Cc1ccc(C(C)/C=C2\CCC(CN(C)C)C2=O)cc1` (stereo unspecified) it is 36.3 µM; for `Cn1c(=O)c2nc3sc4c(n3c2n(C)c1=O)C(=O)c1ccccc1C4=O` it is > 100 µM.
Same read-out and setting: the figure for `N#CC1CC(c2ccccc2)Nc2cc(Cl)ccc2N1` (stereo unspecified) is > 100 µM.

Another assay relates to HS 578T breast. Briefly: growth of human tumour cells (NCI), 48 h.
`CC(C)Cc1ccc(C(C)/C=C2\CCC(CN(C)C)C2=O)cc1` (stereo unspecified) had a TGI of 8.45 µM.
Same read-out and setting: the figure for `Cn1c(=O)c2nc3sc4c(n3c2n(C)c1=O)C(=O)c1ccccc1C4=O` is 51.5 µM.

In the next assay the test system is MDA-MB-435. Briefly: growth of human tumour cells (NCI), 48 h.
The molecule `CC(C)Cc1ccc(C(C)/C=C2\CCC(CN(C)C)C2=O)cc1` (stereo unspecified) gave a TGI of 19.6 µM.
Same read-out and setting: the figure for `Cn1c(=O)c2nc3sc4c(n3c2n(C)c1=O)C(=O)c1ccccc1C4=O` is > 76 µM.

A further assay has as its system HOP-92 NSCLC. The assay can be described thus: growth of human tumour cells (NCI), 48 h.
Regarding `O=C1NC(=O)C2C(=O)NC(=O)C1C2Cc1ccco1` (stereo unspecified), the TGI was > 100 µM.
The molecule `CCOC(=O)/C(=C/c1ccccn1)C(=O)c1ccccc1` gave a TGI of 21.1 µM.
On the same count and under the same terms, the same measure for `O=NN(CCCl)C(=O)NC1CCC(CC(=O)O)CC1` (stereo unspecified): > 100 µM; for `COc1ccc(/C=C2\C(=O)N(NC(C)=O)c3ccccc32)cc1`: > 100 µM; for `O=C(CCCC(=O)Nc1ccc(Cl)cc1Cl)CC(=O)c1ccc2ccccc2c1`: > 100 µM.
Consider `CCc1cccc(CC)c1NC(=O)/C(Cl)=C(/Cl)C(=O)O`, for which the TGI was found to be 41.4 µM.
Still for that read-out and setting: the figure for `Nc1nc(=S)c2c(ncn2CCO)[nH]1` is > 100 µM; for `CC(C)Cc1ccc(C(C)/C=C2\CCC(CN(C)C)C2=O)cc1` (stereo unspecified) it is 39.1 µM.
Take `Cn1c(=O)c2nc3sc4c(n3c2n(C)c1=O)C(=O)c1ccccc1C4=O`: the TGI was > 42.7 µM.
On the same count and under the same terms, the figure for `N#CC1CC(c2ccccc2)Nc2cc(Cl)ccc2N1` (stereo unspecified) is > 100 µM.

Another assay deals with KM20L2 colon. The assay can be described thus: growth of human tumour cells (NCI), 48 h.
In the case of `O=C1NC(=O)C2C(=O)NC(=O)C1C2Cc1ccco1` (stereo unspecified), the TGI is > 100 µM.
The same measure, in the same setting: the figure for `CCOC(=O)/C(=C/c1ccccn1)C(=O)c1ccccc1` is 51.6 µM; for `O=NN(CCCl)C(=O)NC1CCC(CC(=O)O)CC1` (stereo unspecified) it is > 100 µM; for `COc1ccc(/C=C2\C(=O)N(NC(C)=O)c3ccccc32)cc1` it is > 100 µM.
On the same count and under the same terms, the figure for `O=C(CCCC(=O)Nc1ccc(Cl)cc1Cl)CC(=O)c1ccc2ccccc2c1` is > 100 µM.
Same read-out and setting: the figure for `CCc1cccc(CC)c1NC(=O)/C(Cl)=C(/Cl)C(=O)O` is > 71 µM.
Turning to `Nc1nc(=S)c2c(ncn2CCO)[nH]1`, the TGI was > 100 µM.
For the molecule `CC(C)Cc1ccc(C(C)/C=C2\CCC(CN(C)C)C2=O)cc1` (stereo unspecified), the TGI was 51.4 µM.
The same measure, in the same setting: the same measure for `Cn1c(=O)c2nc3sc4c(n3c2n(C)c1=O)C(=O)c1ccccc1C4=O`: > 100 µM; for `N#CC1CC(c2ccccc2)Nc2cc(Cl)ccc2N1` (stereo unspecified): > 100 µM.
